The values that follow come from publication PMC12723449, “From Pharmacophore to Warhead: NAD^+‐Targeting Triazoles as Mechanism‐Based Sirtuin Inhibitors” (Angewandte Chemie (International Ed. in English), 2025).

Experiment [1] addresses T1, HEK293T cells overexpressing a NanoLuc–SIRT2 fusion protein (Homo sapiens, UniProt Q8IXJ6).
T1 construct: transfected HEK293T cells expressing the NanoLuc-tagged SIRT250-356 fusion protein were used instead of transient; expressed in transfected cells; host or cells: HEK293T (stably transfected)
T1 sequence (Q8IXJ6 50-356 limits assumed): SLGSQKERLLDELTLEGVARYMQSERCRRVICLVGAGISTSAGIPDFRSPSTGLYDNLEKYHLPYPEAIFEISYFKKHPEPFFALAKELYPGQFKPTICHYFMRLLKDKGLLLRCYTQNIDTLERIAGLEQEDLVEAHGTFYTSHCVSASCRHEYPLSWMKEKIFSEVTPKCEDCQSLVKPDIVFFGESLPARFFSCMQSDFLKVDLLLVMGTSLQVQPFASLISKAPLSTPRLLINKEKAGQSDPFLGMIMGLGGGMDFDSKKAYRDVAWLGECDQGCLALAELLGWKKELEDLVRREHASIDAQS
Briefly: CE-ESI-MS analysis of adducts formed in cellulo. The class given is cell-based. As to conditions: 20 µM, 3 h.

The target of experiment [2] is T2, SIRT2 (Homo sapiens, UniProt Q8IXJ6).
T2 construct: For assay experiments, strep-tagged human SIRT1134−747 and SIRT256-356 were expressed and purified as previously; Strep-tag; made in house; host or cells: E. coli BL21 Star (DE3)
T2 sequence (Q8IXJ6 56-356 limits assumed): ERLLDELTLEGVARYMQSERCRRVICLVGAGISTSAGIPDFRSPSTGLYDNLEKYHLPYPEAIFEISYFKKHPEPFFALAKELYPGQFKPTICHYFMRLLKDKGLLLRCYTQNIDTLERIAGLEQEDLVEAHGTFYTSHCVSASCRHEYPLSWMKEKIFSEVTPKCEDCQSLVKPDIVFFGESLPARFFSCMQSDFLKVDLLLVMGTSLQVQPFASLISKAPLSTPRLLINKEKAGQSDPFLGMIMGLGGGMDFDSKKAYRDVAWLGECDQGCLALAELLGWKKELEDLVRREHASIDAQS
Briefly: Jump-dilution assay. Format: biochemical.

The target in experiment [3] is T2, SIRT2. Briefly: Kinetic analysis via continuous enzyme demyristoylation inhibition assay. The class given is biochemical. As to conditions: myristoylated substrate, two-step inhibition model; read-out: K I app. Here is the method: solution was diluted 100-fold to a total volume of 40 µL with substrate (final concentration of 40 nM), NAD+ (final concentration of 500 µM) and DMSO (final concentration of 5 % (v/v)) and transferred to a black 384-well microplate (Optiplate 384 F, PerkinElmer). For NAD+ preincubation, 0.1 µL of inhibitor solution (40× IC50, […] after jump dilution), 0.1 µL of SIRT2 (400 nM, final concentration of 1 nM after jump dilution) and 0.2 µL of NAD+ ([…] concentration of 500 µM after jump dilution) were preincubated for 30 min. […] The change in fluorescence was monitored with a microplate reader (λEx = 485 nm, λEm = 530-10 nm, BMG POLARstar Optima, BMG Labtech, Germany) every 30 s for 20 min. […] Reaction rates were obtained from the slope of the fluorescence signal over time and converted to product concentration using calibration curves, assuming equal fluorescence intensities for substrate and product, as […]
Ft = time-dependent signal resulting from product formation (in µM, calculated from AU values), F0 = Y-intercept = background signal at reaction initiation (in µM, calculated from AU values), vi = initial product formation velocity (in µM/min), vs = final/steady-state product formation velocity (in µM/min), t = incubation time after enzyme addition (in min), kobs = observed rate of time-dependent inhibition from initial vi to final vs (in min-1). […]

As for `Cc1cc(C)nc(SCC(=O)Nc2ncc(Cc3cccc(OCc4c[nH]nn4)c3)s2)n1` [Compound 7], the “ADPR adduct formation in cells by CE-ESI-MS/MS” value in experiment [1] is “confirmed formation of 7–ADPR in cellulo”.

Turning to `CCCCCCCCCCCCc1cn(CCCC[C@H](NC(=O)[C@H](CCCCN)NC(=O)[C@@H]2CCCN2C(=O)[C@H](CC(C)C)NC(=O)[C@H](C)NC(=O)[C@H](CCC(=O)O)NC(C)=O)C(=O)N[C@H](C(=O)NCC(=O)NCC(N)=O)[C@@H](C)O)nn1` [Compound 6], the “SIRT2 enzymatic activity after jump dilution” value is recorded as 13% in experiment [2] (preincubation of SIRT2 with compound and NAD+ (30 min), 1:100 dilution to 4 nM); 72% in experiment [2] (without NAD+ preincubation, 1:100 dilution). The Ki in experiment [3] worked out at 24.7 µM.
